From patent US9926295B2, “Potent and selective inhibitors of hepatitis C virus” (Cocrystal Pharma, Inc., priority 2014, dated 2018)

What was measured:
Format in all cases: cell-based
[1] = system: HCV Replicon RNA (HCV 1b) in Huh 7 Clone B cells; experiment: HCV Replicon Assay; details: Hepatitis C virus, 120 h, five days incubation
Procedure: Huh 7 Clone B cells containing HCV Replicon RNA would be seeded in a 96-well plate at 5000 cells/well, and the compounds tested at 10 μM in triplicate immediately after seeding. Following five days incubation (37° C., 5% CO2), total cellular RNA was isolated by using versaGene RNA purification kit from Gentra. Replicon RNA and an internal control (TaqMan rRNA control reagents, Applied Biosystems) were amplified in a single step multiplex Real Time RT-PCR Assay. The antiviral effectiveness of the compounds was calculated by subtracting the threshold RT-PCR cycle of the test compound from the threshold RT-PCR cycle of the no-drug control (ΔCt HCV). A ΔCt of 3.3 equals a 1-log reduction (equal to 90% less starting material) in Replicon RNA levels. The cytotoxicity of the compounds was also calculated by using the ΔCt rRNA values. 2′-C-Me-C was used as the positive control. To determine EC90 and IC50 values^2, ΔCt: values were first converted into fraction of starting material^3 and then were used to calculate the % inhibition.
• 1. Stuyver L et al., Ribonucleoside analogue that blocks replication or bovine viral diarrhea and hepatitis C viruses in culture. Antimicrob. Agents Chemother. 2003, 47, 244-254. • 2. Reed I J & Muench H, A simple method or estimating fifty percent endpoints. Am. J. Hyg. 27: 497, 1938. • 3. Applied Biosystems Handbook Median Effective concentrations (EC50) ranges against HCV 1b are as follow: A=[…] B=100-999 nM C=1-99 nM D=<1 nM

[2] = Cellular toxicity assay in human PBM cells; details: read-out: Cytotoxicity (IC50 μM) PBM
Procedure: (§1) The toxicity of the compounds was assessed in Vero, human PBM, CEM (human lymphoblastoid), MT-2, and HepG2 cells, as described previously (see Schinazi R. F., Sommadossi J.-P., Saalmann V., Cannon D. L., Xie M.-Y., Hart G. C., Smith G. A. & Hahn E. F. Antimicrob. Agents Chemother. 1990, 34, 1061-67). Cycloheximide was included as positive cytotoxic control, and untreated cells exposed to solvent were included as negative controls. The cytotoxicity IC50 was obtained from the concentration-response curve using the median effective method described previously (see Chou T.-C. & Talalay P. Adv. Enzyme Regul. 1984, 22, 27-55; Belen'kii M. S. & Schinazi R. F. Antiviral Res. 1994, 25, 1-11).

[3] = Cellular toxicity assay in CEM cells; details: human, CEM (human lymphoblastoid) cells, read-out: Cytotoxicity (IC50 μM) CEM
Procedure: as §1

[4] = Cellular toxicity assay in Vero cells; details: African green monkey, read-out: Cytotoxicity (IC50 μM) Vero
Procedure: as §1

Row | SMILES | EC50 ([1]; pM) [pM] | EC90 ([1]; pM) [pM] | IC50 [2] [µM] | IC50 [3] [µM] | IC50 [4] [µM] | EC50 ([1]; values in nM) [pM] | EC90 ([1]; values in nM) [pM]
1 | COC(=O)N[C@H](C(=O)N1CCCC1c1nc(Cl)c(-c2ccc(-c3ccc(-c4cnc([C@@H]5C[C@H](SC)CN5C(=O)[C@@H](NC(=O)OC)C(C)C)[nH]4)cc3)cc2)[nH]1)C(C)C (stereo partly drawn) [Compound 42] | 13.9 | 26.3 | 60 | 3.1 | 34.5 | – | –
2 | COC(=O)N[C@H](C(=O)N1CCCC1c1nc(Cl)c(-c2ccc(-c3ccc(-c4cnc([C@@H]5C[C@H]([S+](C)[O-])CN5C(=O)[C@@H](NC(=O)OC)c5ccccc5)[nH]4)cc3)cc2)[nH]1)c1ccccc1 (stereo partly drawn) [Compound 44] | – | – | 89.7 | 3.6 | > 100 | 200 | 1100
3 | COC(=O)N[C@H](C(=O)N1CCCC1c1ncc(-c2ccc(-c3ccc(-c4[nH]c([C@@H]5C[C@H](SC)CN5C(=O)[C@@H](NC(=O)OC)C(C)C)nc4Cl)cc3)cc2)[nH]1)C(C)C (stereo partly drawn) [Compound 45] | 16.3 | 31.6 | 27.2 | 5.2 | 14.4 | – | –
4 | COC(=O)N[C@H](C(=O)N1CCCC1c1ncc(-c2ccc(-c3ccc(-c4[nH]c([C@@H]5C[C@H]([S+](C)[O-])CN5C(=O)[C@@H](NC(=O)OC)C(C)C)nc4Cl)cc3)cc2)[nH]1)C(C)C (stereo partly drawn) [Compound 46] | – | – | 13.6 | 3.7 | 45.8 | 60 | 300
5 | COC(=O)N[C@H](C(=O)N1CCCC1c1ncc(-c2ccc(-c3ccc(-c4[nH]c([C@@H]5C[C@H](SC)CN5C(=O)[C@@H](NC(=O)OC)c5ccccc5)nc4Cl)cc3)cc2)[nH]1)c1ccccc1 (stereo partly drawn) [Compound 47] | 4 | 23.1 | > 100 | > 100 | > 100 | – | –
6 | COC(=O)N[C@H](C(=O)N1CCCC1c1ncc(-c2ccc(-c3ccc(-c4[nH]c([C@@H]5C[C@H]([S+](C)[O-])CN5C(=O)[C@@H](NC(=O)OC)c5ccccc5)nc4Cl)cc3)cc2)[nH]1)c1ccccc1 (stereo partly drawn) [Compound 48] | – | – | 67.6 | 1.8 | > 100 | 70 | 500
7 | COC(=O)N[C@H](C(=O)N1CCCC1c1nc(Cl)c(-c2ccc(-c3ccc(-c4[nH]c([C@@H]5C[C@H](SC)CN5C(=O)[C@@H](NC(=O)OC)C(C)C)nc4Cl)cc3)cc2)[nH]1)C(C)C (stereo partly drawn) [Compound 49] | 3.4 | 69.9 | 24.3 | 2.5 | > 100 | – | –
8 | COC(=O)N[C@H](C(=O)N1CCCC1c1nc(Cl)c(-c2ccc(-c3ccc(-c4[nH]c([C@@H]5C[C@H](SC)CN5C(=O)[C@@H](NC(=O)OC)c5ccccc5)nc4Cl)cc3)cc2)[nH]1)c1ccccc1 (stereo partly drawn) [Compound 51] | 7.7 | 19.1 | > 100 | > 100 | > 100 | – | –
9 | COC(=O)N[C@H](C(=O)N1CCCC1c1nc(Cl)c(-c2ccc(-c3ccc(-c4[nH]c([C@@H]5C[C@H]([S+](C)[O-])CN5C(=O)[C@@H](NC(=O)OC)c5ccccc5)nc4Cl)cc3)cc2)[nH]1)c1ccccc1 (stereo partly drawn) [Compound 52] | – | – | 83.9 | 7.1 | > 100 | 60 | 200
